The supplement of paper PMC10627819

Experiments:
S. pneumoniae D39V = test: fitness (endpoint OD595 vs no drug) (fraction); higher = more growth
Outline: (§1)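 At 37 °C, bacteria in TSB, LB Lennox or CY were grown in 384-well plates from a starting OD595 of 0.01. OD595 was measured every 30 min for 14 h, with the first reading used as background. Fitness is the optical density at the switch to stationary phase as a fraction of the robust mean of no-drug control wells, capped at 1.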

B. subtilis 168 = test: as above
Outline: as §1
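Also: OD595 on entry to stationary phase over no-drug wells; at most 1.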

CC(=O)Oc1ccccc1C(=O)O [Acetylsalicylic acid] + O=C(O)c1cn(C2CC2)c2cc(N3CCNCC3)c(F)cc2c1=O [Ciprofloxacin]
fitness, S. pneumoniae D39V
Conditions	first compound 250 µg/mL	first compound 500 µg/mL	first compound 1000 µg/mL
partner 0.125 µg/mL	0.963	0.907	0.863
partner 0.25 µg/mL	0.883	0.904	0.833
partner 0.5 µg/mL	0.835	0.835	0.719

CN(C)[C@@H]1C(O)=C(C(N)=O)C(=O)[C@@]2(O)C(O)=C3C(=O)c4c(O)ccc(Cl)c4[C@@](C)(O)[C@H]3C[C@@H]12 [Chlortetracycline] + C/C(=C\C(=O)OCCCCCCCCC(=O)O)C[C@@H]1OC[C@H](C[C@@H]2O[C@H]2[C@@H](C)[C@H](C)O)[C@@H](O)[C@H]1O [Pseudomonic acid]
fitness, S. pneumoniae D39V
Conditions	first compound 0.012 µg/mL	first compound 0.024 µg/mL	first compound 0.048 µg/mL	first compound 0.375 µg/mL	first compound 0.75 µg/mL	first compound 1.5 µg/mL
partner 0.03 µg/mL	0.884	0.853	0.829	0.0434	0.0614	0.0477
partner 0.06 µg/mL	0.78	0.75	0.779	0.0787	0.0801	0.0542
partner 0.12 µg/mL	0.57	0.586	0.62	0.0891	0.0486	0.0665

CN(C)[C@@H]1C(O)=C(C(N)=O)C(=O)[C@@]2(O)C(O)=C3C(=O)c4c(O)ccc(Cl)c4[C@@](C)(O)[C@H]3C[C@@H]12 [Chlortetracycline] + CC1=C(C(=O)O)N2C(=O)[C@@H](NC(=O)[C@H](N)c3ccccc3)[C@H]2SC1 [Cephalexin]
fitness
Conditions	first compound 0.0475 µg/mL	first compound 0.095 µg/mL	first compound 0.19 µg/mL	first compound 0.375 µg/mL	first compound 0.75 µg/mL	first compound 1.5 µg/mL
B. subtilis 168, partner 0.125 µg/mL	0.922	0.708	0.437	–	–	–
B. subtilis 168, partner 0.25 µg/mL	0.918	0.818	0.534	–	–	–
B. subtilis 168, partner 0.5 µg/mL	0.852	0.811	0.551	–	–	–
S. pneumoniae D39V, partner 1 µg/mL	–	–	–	0.0846	0.0412	0.0388
S. pneumoniae D39V, partner 2 µg/mL	–	–	–	0.0341	0.0584	0.0428
S. pneumoniae D39V, partner 4 µg/mL	–	–	–	0.0429	0.0665	0.0379

fitness, one replicate
Conditions	first compound 0.012 µg/mL	first compound 0.024 µg/mL	first compound 0.0475 µg/mL	first compound 0.048 µg/mL	first compound 0.095 µg/mL	first compound 0.19 µg/mL
B. subtilis 168, partner 1 µg/mL	–	–	0.936	–	0.827	0.606
S. pneumoniae D39V, partner 0.125 µg/mL	0.933	0.86	–	0.797	–	–
S. pneumoniae D39V, partner 0.25 µg/mL	0.872	0.809	–	0.762	–	–
S. pneumoniae D39V, partner 0.5 µg/mL	0.883	0.84	–	0.706	–	–

CN(C)[C@@H]1C(O)=C(C(N)=O)C(=O)[C@@]2(O)C(O)=C3C(=O)c4c(O)ccc(Cl)c4[C@@](C)(O)[C@H]3C[C@@H]12 [Chlortetracycline] + CO/N=C(\C(=O)N[C@@H]1C(=O)N2C(C(=O)O)=C(COC(N)=O)CS[C@H]12)c1ccco1 [Cefuroxime]
fitness, B. subtilis 168
Conditions	first compound 0.0475 µg/mL	first compound 0.095 µg/mL	first compound 0.19 µg/mL
partner 0.04875 µg/mL	0.667	0.593	0.162
partner 0.0975 µg/mL	0.601	0.519	0.135
partner 0.195 µg/mL	0.429	0.312	0.0926

fitness, B. subtilis 168, one replicate
Conditions	partner 0.39 µg/mL	partner 0.78 µg/mL	partner 1.562 µg/mL	partner 3.125 µg/mL	partner 6.25 µg/mL
first compound 0.0475 µg/mL	0.346	0.362	0.303	0.275	0.21
first compound 0.095 µg/mL	0.207	0.145	0.103	0.0825	0.0597
first compound 0.19 µg/mL	0.0621	0.0481	0.038	0.0341	0.0237

CN(C)[C@@H]1C(O)=C(C(N)=O)C(=O)[C@@]2(O)C(O)=C3C(=O)c4c(O)ccc(Cl)c4[C@@](C)(O)[C@H]3C[C@@H]12 [Chlortetracycline] + CO[C@@H]1[C@@H](OC(N)=O)[C@@H](O)[C@H](Oc2ccc3c(O)c(NC(=O)c4ccc(O)c(CC=C(C)C)c4)c(=O)oc3c2C)OC1(C)C [Novobiocin]
fitness, B. subtilis 168
Conditions	first compound 0.0475 µg/mL	first compound 0.095 µg/mL	first compound 0.19 µg/mL
partner 0.0125 µg/mL	0.909	0.765	0.469
partner 0.025 µg/mL	0.623	0.653	0.336
partner 0.05 µg/mL	0.986	0.844	0.398

fitness, B. subtilis 168, one replicate
Conditions	partner 0.1 µg/mL	partner 0.125 µg/mL	partner 0.2 µg/mL	partner 0.25 µg/mL	partner 0.5 µg/mL
first compound 0.0475 µg/mL	0.948	0.928	0.934	0.966	0.648
first compound 0.095 µg/mL	0.863	0.839	0.936	0.811	0.577
first compound 0.19 µg/mL	0.529	0.548	0.52	0.537	0.323

CN(C)[C@@H]1C(O)=C(C(N)=O)C(=O)[C@@]2(O)C(O)=C3C(=O)c4c(O)ccc(Cl)c4[C@@](C)(O)[C@H]3C[C@@H]12 [Chlortetracycline] + CO[C@H]1/C=C/O[C@@]2(C)Oc3c(C)c(O)c4c(O)c(c(/C=N/N5CCN(C)CC5)c(O)c4c3C2=O)NC(=O)/C(C)=C\C=C\[C@H](C)[C@H](O)[C@@H](C)[C@@H](O)[C@@H](C)[C@H](OC(C)=O)[C@@H]1C [Rifampicin]
fitness, S. pneumoniae D39V, one replicate
Conditions	first compound 0.012 µg/mL	first compound 0.024 µg/mL	first compound 0.048 µg/mL
partner 0.025 µg/mL	0.844	0.793	0.642
partner 0.2 µg/mL	0	0	0

fitness, S. pneumoniae D39V
Conditions	first compound 0.012 µg/mL	first compound 0.024 µg/mL	first compound 0.048 µg/mL	first compound 0.375 µg/mL	first compound 0.75 µg/mL	first compound 1.5 µg/mL
partner 0.025 µg/mL	–	–	–	0.0932	0.0627	0.0877
partner 0.05 µg/mL	0.729	0.687	0.46	0.077	0.103	0.113
partner 0.1 µg/mL	0.472	0.429	0.272	0.102	0.102	0.14

CN(C)[C@@H]1C(O)=C(C(N)=O)C(=O)[C@@]2(O)C(O)=C3C(=O)c4c(O)ccc(Cl)c4[C@@](C)(O)[C@H]3C[C@@H]12 [Chlortetracycline] + C[C@@H](O)[C@H]1C(=O)N2C(C(=O)O)=C(SCCNC=N)C[C@H]12 [Imipenem]
fitness, S. pneumoniae D39V
Conditions	first compound 0.012 µg/mL	first compound 0.024 µg/mL	first compound 0.048 µg/mL	first compound 0.375 µg/mL	first compound 0.75 µg/mL	first compound 1.5 µg/mL
partner 0.005 µg/mL	–	–	–	0.0486	0.0409	0.0284
partner 0.0065 µg/mL	0.894	0.799	0.686	–	–	–
partner 0.01 µg/mL	–	–	–	0.0501	0.0583	0.0373
partner 0.013 µg/mL	0.863	0.865	0.837	–	–	–
partner 0.02 µg/mL	–	–	–	0.0339	0.065	0.065
partner 0.026 µg/mL	0.724	0.761	0.724	–	–	–

CN(C)[C@@H]1C(O)=C(C(N)=O)C(=O)[C@@]2(O)C(O)=C3C(=O)c4c(O)ccc(Cl)c4[C@@](C)(O)[C@H]3C[C@@H]12 [Chlortetracycline] + Clc1ccc(COC(Cn2ccnc2)c2ccc(Cl)cc2Cl)c(Cl)c1 [Miconazole]
fitness, S. pneumoniae D39V
Conditions	first compound 0.012 µg/mL	first compound 0.024 µg/mL	first compound 0.048 µg/mL	first compound 0.375 µg/mL	first compound 0.75 µg/mL	first compound 1.5 µg/mL
partner 1.073 µg/mL	0.995	0.926	0.907	–	–	–
partner 1.25 µg/mL	–	–	–	0.0819	0.0494	0.0765
partner 2.145 µg/mL	0.971	0.935	0.879	–	–	–
partner 2.5 µg/mL	–	–	–	0.104	0.0646	0.0895
partner 4.29 µg/mL	0.913	0.883	0.793	–	–	–
partner 5 µg/mL	–	–	–	0.0525	0.0422	0.0647

CN(C)[C@@H]1C(O)=C(C(N)=O)C(=O)[C@@]2(O)C(O)=C3C(=O)c4c(O)ccc(Cl)c4[C@@](C)(O)[C@H]3C[C@@H]12 [Chlortetracycline] + O=C1CN(/N=C/c2ccc([N+](=O)[O-])o2)C(=O)N1 [Nitrofurantoin]
fitness, S. pneumoniae D39V
Conditions	first compound 0.012 µg/mL	first compound 0.024 µg/mL	first compound 0.048 µg/mL	first compound 0.375 µg/mL	first compound 0.75 µg/mL	first compound 1.5 µg/mL
partner 1.285 µg/mL	0.958	0.896	0.842	–	–	–
partner 2 µg/mL	–	–	–	0.034	0.0485	0.0311
partner 2.57 µg/mL	0.96	0.951	0.836	–	–	–
partner 4 µg/mL	–	–	–	0.0275	0.0381	0.0293
partner 8 µg/mL	–	–	–	0.0328	0.0386	0.0233

S. pneumoniae D39V, partner 5.14 µg/mL, one replicate
Conditions	fitness
first compound 0.012 µg/mL	0.862
first compound 0.024 µg/mL	0.898
first compound 0.048 µg/mL	0.762

C[C@H]1c2cccc(O)c2C(=O)C2=C(O)[C@]3(O)C(=O)C(C(N)=O)=C(O)[C@@H](N(C)C)[C@@H]3[C@@H](O)[C@@H]21 [Doxycycline] + CO/N=C(\C(=O)N[C@@H]1C(=O)N2C(C(=O)[O-])=C(C[N+]3(C)CCCC3)CS[C@H]12)c1csc(N)n1 [Cefepime]
fitness, S. pneumoniae D39V, one replicate
Conditions	first compound 0.003875 µg/mL	first compound 0.00775 µg/mL	first compound 0.031 µg/mL	first compound 0.062 µg/mL
partner 0.0078 µg/mL	≥ 1	≥ 1	0.936	0.84
partner 0.0155 µg/mL	≥ 1	0.991	0.888	0.779
partner 0.031 µg/mL	0.637	0.783	0.834	0.684

fitness, S. pneumoniae D39V
Conditions	partner 0.007 µg/mL	partner 0.0078 µg/mL	partner 0.014 µg/mL	partner 0.0155 µg/mL	partner 0.028 µg/mL	partner 0.031 µg/mL
first compound 0.0155 µg/mL	0.944	≥ 1	0.934	0.974	0.858	0.882
first compound 0.031 µg/mL	0.951	–	0.938	–	0.88	–

C[C@H]1c2cccc(O)c2C(=O)C2=C(O)[C@]3(O)C(=O)C(C(N)=O)=C(O)[C@@H](N(C)C)[C@@H]3[C@@H](O)[C@@H]21 [Doxycycline] + CO[C@@]12[C@H](COC(N)=O)C3=C(C(=O)C(C)=C(N)C3=O)N1C[C@@H]1N[C@@H]12 [Mitomycin C]
fitness, S. pneumoniae D39V, one replicate
Conditions	first compound 0.003875 µg/mL	first compound 0.00775 µg/mL	first compound 0.031 µg/mL	first compound 0.062 µg/mL
partner 0.002 µg/mL	0.897	0.823	0.833	0.64
partner 0.004 µg/mL	0.848	0.828	0.783	0.616
partner 0.008 µg/mL	0.615	0.622	0.622	0.456

fitness, S. pneumoniae D39V
Conditions	partner 0.001075 µg/mL	partner 0.002 µg/mL	partner 0.00215 µg/mL	partner 0.004 µg/mL	partner 0.0043 µg/mL	partner 0.008 µg/mL
first compound 0.0155 µg/mL	0.863	0.82	0.819	0.792	0.717	0.699
first compound 0.031 µg/mL	0.816	–	0.814	–	0.649	–
first compound 0.062 µg/mL	0.743	–	0.771	–	0.63	–
